1 compound from US20250134918A1, “COMPOSITIONS AND METHODS USING A NICOTINAMIDE ADENINE DINUCLEOTIDE (NAD+) PRECURSOR AND AT LEAST ONE KETONE OR KETONE PRECURSOR” (SOCIETE DES PRODUITS NESTLE S.A., priority 2018, published 2025) can be followed below.

This experiment deals with human iPSC-derived astrocytes (homozygous ApoE 3 or homozygous ApoE4 genotype). The experiment can be described thus: Oxygen consumption (Seahorse XF96), FCCP-uncoupled maximal respiration. Conditions: hiPSC-derived astrocytes, ApoE3 (FIG. 6) and ApoE4 (FIG. 7); NR 0.5 mM for 24 hours; BHB 0.5 mM or 2 mM or BHP 2 mM for 1 h; FCCP 1 μM. In kind it is cell-based. The method, then:
Differentiated human iPSC-derived astrocytes with either a homozygous ApoE 3 genotype or homozygous ApoE4 genotype (and otherwise isogenic) were obtained from Cellular Dynamics International (CDI, Madison, WI, USA). The cells were thawed according to the manufacturer's instructions. Astrocytes were cultured in DMEM supplemented with 10% fetal calf serum and N2 complement. Oxygen consumption in human iPSC-derived astrocytes was measured in a Seahorse XF96 instrument (Seahorse Bioscience, North Billerica, MA, USA). Astrocytes were seeded directly into Seahorse 96-well tissue culture plates (XF96 FluxPaks no. 102416-100; Seahorse Bioscience) at a density of 40,000 cells per well. Cells were incubated for 24 hours with 0.5 mM of Nicotinamide riboside chloride (NR) or fresh medium before experiment. Four days after seeding, the cells were washed twice in KRBH containing 1 mM glucose and incubated for 1 h with the ketone bodies BHB (racemic (D,L) BHB) or BHP (D BHP) at the concentration indicated. The cells were maintained at 37° C. during the experiment. Mitochondrial respiration rates were determined every 6 minutes. […] The oxygen consumption rate in hiPSC-derived astrocytes was measured as an indication of mitochondrial function, using a Seahorse instrument. Through addition of the uncoupling agent FCCP, uncoupled (=maximal) respiration was determined.

Consider `NC(=O)c1ccc[n+]([C@@H]2O[C@H](CO)[C@@H](O)[C@H]2O)c1` [NR, Nicotinamide riboside chloride], for which the “maximal respiration (uncoupled oxygen consumption rate)” value is “Neither ketone bodies alone nor NR treatment significantly increases maximal respiration”.
